The conditions of series [1]: cited from earlier work; for Type of Heat: heat of aqueous solution; for Heat of Aqueous Solution: tabulated, Handbook of Chemistry and Physics.
The text on series [2]:
Much time and effort was spent screening detergents that would adequately lyse cells and also stay soluble in the Lysing/Binding Solution of the present invention. The Tween, Triton, Tergitol, Nonidet and Igepal family of detergents were examined along with a number of non-ionic detergent-like compounds.

The conditions of series [3]: data extrapolated to 20° C. from tabulated data in Handbook of Chemistry and Physics, cited from earlier work.
The conditions of series [4]: approximate maximum solubility in Wash I Solution containing 55% ethanol.
For series [5] the following is noted: pH 8.8.
In the next series the test system is RNase activity. Kind of series: RNase activity with LiCl Wash I Solution, detected as degraded RNA in the final eluted RNA product. The series is classed as biochemical. The text has this: For cesium, ammonium, sodium and potassium chloride salts, the maximum solubilities obtained in 55% ethanol were about 2.5 M, 2 M, 1.5 M, and <1 M, respectively. […] It is likely that RNase activity would be detected using the LiCl and LiBr salts as well, at least some proportion of the time, and depending upon the tissue from which the RNA is purified. […] This is probably because solubility definitions are somewhat vague for predicted alcohol solubilities, and the Wash I Solution used in this experiment contained a mixture of water and ethanol, rather than a pure alcohol solution.

The values that follow come from patent US7767804B2, “Compositions and methods for using a solid support to purify RNA” (Qiagen North American Holdings, Inc., priority 2001, dated 2010).

Like-named read-outs stand apart in the source and are kept apart here. Bounds are passed on as bounds.

Turning to `[Cl-].[Cs+]` [CsCl, cesium chloride], in series [1], the “Type of Heat” value was “endothermic” and the “Heat of Aqueous Solution” value is given as “+4.25 kcal/mole”.

In the case of `CCOCCOCCO` [DGME, Diethyleneglycolmonoethylether], the “Stability/solubility of detergent in the Lysing/Binding Solution over time” value in series [2] is given as “stays in solution”.

Consider `[Cl-].[K+]` [KCl, potassium chloride], for which the “Reported Solubility in Water” value was 3000 mM in series [3] and “approximately 3 M” in series [3] (listed as potassium chloride). The “Type of Heat” value in series [1] was “endothermic”. The “Heat of Aqueous Solution” value in series [1] is listed as “+4.12 kcal/mole”. Besides, the “Measured Solubility in Wash I” value in series [4] and in series [4] (listed as potassium chloride) was < 1000 mM each time.

On to `[Br-].[Li+]` [LiBr, lithium bromide], for which, in series [1], the “Type of Heat” value is “exothermic” and the “Heat of Aqueous Solution” value is -11.67 kcal/mol.

In the case of `[Cl-].[Li+]` [LiCl, lithium chloride], in series [1], the “Type of Heat” value was “exothermic” and the “Heat of Aqueous Solution” value is -8.85 kcal/mol. Further, the “Measured Solubility in Lysis/Binding” value in series [5] is on record as “at least 4M”. Besides, in the series on RNase activity (2.5 M LiCl Wash I Solution), the “RNase activity detected as degraded RNA in the final eluted RNA product” value was “RNase activity was detected at least half of the time”. For the same molecule, the “LiCl needed in the Wash I Solution in order to eliminate the RNase activity” value in the series with RNase activity (Wash I Solution) is “at least 5 M”.

Turning to `Cl.N` [NH4Cl, ammonium chloride], in series [1], the “Type of Heat” value is on record as “endothermic” and the “Heat of Aqueous Solution” value is on record as “+3.53 kcal/mole”.

As to `[Cl-].[Na+]` [NaCl, sodium chloride], in series [1], the “Type of Heat” value was “endothermic” and the “Heat of Aqueous Solution” value was “+0.93 kcal/mole”.

As for `CCCCCCCCCCCC(=O)OCCOCCOCCOCCOCCOCCOCCOCCOCCOCCOCCOCCOCCOCCOCCOCCOCCOCCOCCOCCOCC(OCCOCCOCCOCCOCCOCCOCCOCCOCCOCCOCCOCCOCCOCCOCCOCCOCCOCCOCCOCCO)C1OCC(OCCOCCOCCOCCOCCOCCOCCOCCOCCOCCOCCOCCOCCOCCOCCOCCOCCOCCOCCOCCO)C1OCCOCCOCCOCCOCCOCCOCCOCCOCCOCCOCCOCCOCCOCCOCCOCCOCCOCCOCCOCCO` (stereo not drawn) [Tween-20, polyoxylene sorbitan monolaurate], the “Stability/solubility of detergent in the Lysing/Binding Solution over time” value in series [2] was “saponified or degraded over time and fell out of solution”.
